According to patent publication US9868731B2, “Indole amide compound as inhibitor of necrosis” (LG CHEM, LTD., priority 2013, dated 2018):

These compounds were tested on primary hepatocytes isolated from rats (assay: Hepatocyte protective effect against doxorubicin-induced hepatocyte toxicity (WST-1 viability)). Conditions: Hepatocyte; against doxorubicin treatment; primary rat hepatocytes pretreated with compound 30 min; viability by WST-1 after 24-48 hours; concentration giving 50% of maximum protective effect.
Format: cell-based
Method: Various endogenous/exogenous attacks on cells trigger the mechanisms of cell death which is broadly classified into two types—i.e., apoptosis or necrosis. Using these cell death mechanisms, in the present experimental example, primary hepatocytes isolated from rats were treated with drugs which were clinically shown to result in serious side-effects of hepatocyte toxicity or various chemicals which cause cell death, and the compounds synthesized in the Examples were estimated for their hepatocyte protective effects, after 24-48 hours. The substances used to cause hepatocyte death include CCl4, ActD, H2O2, doxorubicin, anti-Fas Ab/Actinomycin D, acetaminophen, EtOH, CdCl2, palmitate, stearate, cyclophosphamide, terfenadine, diclofenac, simvastatin, and adefovir. Primary hepatocytes were isolated using the method of Seglen P O (Experimental Cell Research 74 (1972), pp. 450-454). Briefly, hepatocytes were isolated according to the two-step collagenase perfusion method, and dead cells were removed by low speed (500 rpm) centrifugation for 10 min using percoll gradient (Kreamer B L et al., In Vitro Cellular & Developmental Biology 22 (1986), pp. 201-211). During this step, the viability of cells was maintained 90% or above. The cells were suspended in HepatoZYME media (Gibco BRL), and the number of cells was counted. 1.5×10^4 cells in 100 μl were placed into the collagen-coated 96-well plate (BD Biocoat), and adhered on the bottom for 3-4 hours.
In order to assess the hepatocyte protective effect, the above adhered cells were pretreated with the Example compounds for 30 min. At this time, the concentration of the Example compounds was serially diluted by 2-fold or 3-fold over 5 steps starting from 30 μM, 10 μM or 1 μM depending on the experiments, and the final concentration of DMSO was adjusted to 0.2%. 30 min after the treatment by the compounds, the cells were treated by the substances deriving hepatocyte death or hepatotoxic drugs at the concentrations indicated in Table 1. After 24-48 hours, the viability of cells was determined to estimate the hepatocyte protective effects. The viability of cells was determined using the WST-1 (MK-400, […]) method by the absorbance at 440 nm. Hepatocyte protective effects of the Example compounds were represented by “EC50” which was calculated from measured values. “EC50” herein means the concentration of the compound at which 50% of maximum protective effect is observed in the experiment.
`CC(C)CCNc1cc(Cl)cc2cc(C(=O)N3CCC(CN)C3)[nH]c12` (centres unmarked) [Example 46, (3-Aminomethyl-pyrrolidin-1-yl)-[5-chloro-7-(3-methyl-butylamino)-1H-indol-2-yl]-methanone] gave an EC50 of 0.29 µM.
`NCC1CCN(C(=O)c2cc3cc(Cl)cc(N(CC4CC4)CC4CC4)c3[nH]2)C1` (centres unmarked) [Example 53, (3-Aminomethyl-pyrrolidin-1-yl)-[7-(bis-cyclopropylmethyl-amino)-5-chloro-1H-indol-2-yl]-methanone] was tested, and the EC50 was 0.71 µM.
With `CC(C)CCN(CCC(C)C)c1cc(Cl)cc2cc(C(=O)N3C[C@@H](CN4CCCC4)[C@H](c4ccc(F)cc4F)C3)[nH]c12` [Example 60, {7-[Bis-(3-methyl-butyl)-amino]-5-chloro-1H-indol-2-yl}-[(3R,4R)-3-(2,4-difluoro-phenyl)-4-pyrrolidin-1-ylmethyl-pyrrolidin-1-yl]-methanone] the EC50 was 0.25 µM.
`O=C(Nc1cccc(CN2CCOCC2)c1)c1cc2cc(Cl)cc(NC3CCNCC3)c2[nH]1` [Example 13, 5-Chloro-7-(piperidin-4-ylamino)-1H-indol-2-carboxylic acid (3-morpholin-4-ylmethyl-phenyl)-amide] gave an EC50 of 0.15 µM.
In the case of `Cc1cc(NC2CCOCC2)c2[nH]c(C(=O)N3CC[C@H](C(=O)O)C3)cc2c1` [Example 38, (S)-1-[5-methyl-7-(tetrahydropyran-4-ylamino)-1H-indol-2-carbonyl]-pyrrolidin-3-carboxylic acid], the EC50 is reported as 0.33 µM.
In the case of `Cc1cc(NC2CCCC2)c2[nH]c(C(=O)N3CCNCC3)cc2c1` [Example 29, (7-Cyclopentylamino-5-methyl-1H-indol-2-yl)-piperazin-4-yl-methanone], the EC50 is reported as 0.2 µM.
`N[C@H]1CCN(C(=O)c2cc3cc(Cl)cc(NC4CCCC4)c3[nH]2)C1` [Example 55, ((S)-3-amino-pyrrolidin-1-yl)-(5-chloro-7-cyclopentylamino-1H-indol-2-yl}-methanone] gave an EC50 of 0.43 µM.
`CCCCCNc1cc(Cl)cc2cc(C(=O)N3CCC(CN)C3)[nH]c12` (centres unmarked) [Example 50, (3-Aminomethyl-pyrrolidin-1-yl)-(5-chloro-7-pentylamino-1H-indol-2-yl]-methanone] was tested, and the EC50 was 0.175 µM.

Same assay, conditions: against doxorubicin treatment; primary rat hepatocytes pretreated with compound 30 min; viability by WST-1 after 24-48 hours; concentration giving 50% of maximum protective effect
For `NCC1CCCN(C(=O)c2cc3cc(Cl)cc(NC4CCCC4)c3[nH]2)C1` (centres unmarked) [Example 52], the EC50 was 0.21 µM.
Work on `NCC1CCN(C(=O)c2cc3cc(Cl)cc(NC4CCCCC4)c3[nH]2)C1` (centres unmarked) [Example 51] yielded an EC50 of 0.33 µM.
In the case of `NCC1CCN(C(=O)c2cc3cc(Cl)cc(NCCc4ccccc4)c3[nH]2)C1` (centres unmarked) [Example 49, (3-Aminomethyl-pyrrolidin-1-yl)-(5-chloro-7-penethylamino-1H-indol-2-yl]-methanone], the EC50 is reported as 0.33 µM.
